Results from patent US20110124574A1, “RESTORATION OF ESTROGEN RECEPTOR-(ALPHA) ACTIVITY” (priority 2008, published 2011).
Where no end group is shown, it is not given here. The star is where a group is joined. For = O=C*

Assays:
Assay type in all cases: cell-based, human
[1] = system: ERα promoter; experiment: Bisulfite genomic sequencing of the ERα promoter in MDA-MB-231 cells; settings: 48 hours, rWnt-5a 0.6 μg/ml, Foxy-5 100 μM
Description: MDA-MB-231 cells were grown in normal media and either left untreated, or stimulated with rWnt-5a protein (rWnt-5a, 0.6 μg/ml)) or the Wnt-5a derived Foxy-5 peptide (F5, 100 μM), for 48 hours. MCF-7 cells were grown for the same amount of time, and were left untreated. DNA was extracted from each sample and subjected to bisulfite modification. Bisulfite treated DNA was subjected to bisulfite genomic sequencing (BGS) of the ERα promoter using nested PCR with primers for the ERα promoter region. PCR products were cloned and 10 random clones sequenced. Filled (black) circles represent methylation at a given cytosine, empty (white) circles represent either unmethyllated cytosine or cytosines demethylated following rWnt-5a or Foxy-5 treatment. The numbers represent the position of CpG dinculeotides relative to the transcription start site (+1). The TATA box is located between positions −17 and +13.
DNA was extracted from cells according to standard procedures. 1 μg of DNA was then bisulfite treated using the EpiTect Bisulfite Kit (Qiagen) and amplified via nested PCR with primers for the ERα promoter region. PCR products were cloned using the TOPO TA cloning kit (Invitrogen). 10 random clones were sequenced using an AB13730 DNA analyzer (Applied Biosystems).

[2] = system: progesterone receptor (PR); experiment: Progesterone receptor mRNA by semi-nested RT-PCR in MDA-MB-231 cells; settings: after 96 hours stimulation
Description: A: Following treatment, cells were lysed and subjected to SDS-PAGE, transferred to nitrocellulose membranes and blotted for phospho-ERα expression. The positive control (Pos) represents cell lysates from T47D cells expressing ERα B and C: RNA was also extracted from stimulated cells and samples tested for progesterone receptor (PR) (B) and pS2 (C) mRNA using semi-nested RT-PCR. The positive control (Pos) is RNA extracted from T47D cells that express ERα. The negative control represents a water control. PCR results are representative of three separate experiments.
(§1) cDNA was synthesized from 1 μg of total RNA using M-MuLV reverse transcriptase (Fermentas) in a MJ Mini Personal Thermal Cycler (Bio-Rad (Hercules Calif.)). All RT-PCR was performed in a designated clean PCR hood. RT-PCR was performed using a master mix containing with 5 μl of 10× buffer, 5 μl of 25 mM MgCl2, 1 μl 10 mM dNTP, 1 μl forward primer, 1 μl reverse primer and 0.2 μl of Taq polymerase (Fermentas (Ontario, Canada)) per sample. For detection of the progesterone receptor (PR), semi nested RT-PCR was performed to increase sensitivity, whereby 10 μl of the initial PCR reaction product was added to a second PCR reaction with a second internal reverse primer. Both A and β isoforms are amplified with these primers.

[3] = system: MDA-MB-231 cells; experiment: MTT proliferation assay; settings: for growth inhibition (MTT) after tamoxifen: MDA-MB-231, stimulation 24 or 48 hours then tamoxifen 5 μM final 20 hours, compared with tamoxifen alone; for effect on breast cancer cell proliferation alone (MTT): without tamoxifen
Description: MDA-MB-231 cells were grown in 6 well plates and stimulated with recombinant Wnt-5a protein (rW5a) or the Wnt-5a derived Foxy-5 peptide (F5), for 24 or 48 h. Cells were treated with tamoxifen for the final 20 h and their apoptotic responses were measured via different methods. […] Arrows highlight apoptotic cells. Bars represent […]. B: Following treatment with rW5a, F5 and tamoxifen, or tamoxifen alone, cells were lysed and subjected to SDS-PAGE, transferred to nitrocellulose membranes and blotted for cleaved caspase 3. C: Treated cells were assessed for their relative caspase 3 activity using fluorometric spectrophotometry. The graph represents 6 separate experiments. * P<0.01, ** P<0.001. D: MTT assays were also performed on MDA-MB-231 cells treated with rWnt-5a, F5 and tamoxifen, or tamoxifen alone (MDA-MB-231 and MCF-7 cells) to assess cell growth inhibition. The graph represents the average of 6 separate experiments, with standard deviation represented by error bars. ** P<0.01, *** P<0.001.
Cell proliferation was measured via MTT assay (Vybrant) following manufacturers instructions. Briefly, MDA-MB-231 and MCF-7 cells were grown in 96 well plates, then either left unstimulated, or stimulated with rWnt-5a (0.6 μg/ml) or Foxy-5 peptide (100 μM) for 24 or 48 hours. Cells were then treated with 5 μM tamoxifen (Sigma) for the final 20 hours. All cells were then labeled with MTT (3-(4,5-dimethylthiazol-2-yl)-2,5-diphenyltetrazolium bromide), incubated at 37° C. for 4 hours and absorbance measured on a Biorad 680 microplate reader (Biorad). The raw absorbance was measured in 9 replicates at 570 nm, and read outs averaged and adjusted accordingly. The experiment was performed 6 times, and results averaged.

[4] = system: ERα; experiment: RT-PCR of estrogen responsive genes CATD and EBAG9 after estradiol and tamoxifen; settings: MDA-MB-231, hormone free media, pretreatment, estradiol plus tamoxifen, at 48 hours
Description: MDA-MB-231 cells were grown in 6 well plates and stimulated with recombinant Wnt-5a (rW5a) or the Wnt-5a derived Foxy-5 peptide (F5), for 24 h or 48 h. The ERα ligand estradiol was added for the final 22 h, and tamoxifen for the final 20 h to a subset of samples. RNA was extracted at the end time point, cDNA synthesized and subjected to RT-PCR for Cathepsin D (CATD), ER-binding fragment associated antigen 9 (EBAG9) and the housekeeping gene, β-actin.
as §1

## formyl-MDGCEL (For-MDGCEL; listed as Homo sapiens) [Foxy-5]
[1]
  methylation of the ERα CpG island: demethylated
[2]
  PR mRNA: detected
[3]
  growth inhibition (MTT) after tamoxifen: statistically significant growth inhibition
  effect on breast cancer cell proliferation alone (MTT): Neither rWnt-5a nor Foxy-5 had an effect
[4]
  Estradiol induced expression of CATD: consistently lost
  Estradiol induced expression of EBAG9: consistently lost

B1: recombinant Wnt-5a: recombinant Wnt-5a protein (R&D Systems) (protein, UniProt P41221 62-380, looked up)
Protein Wnt-5a: IIGAQPLCSQLAGLSQGQKKLCHLYQDHMQYIGEGAKTGIKECQYQFRHRRWNCSTVDNTSVFGRVMQIGSRETAFTYAVSAAGVVNAMSRACREGELSTCGCSRAARPKDLPRDWLWGGCGDNIDYGYRFAKEFVDARERERIHAKGSYESARILMNLHNNEAGRRTVYNLADVACKCHGVSGSCSLKTCWLQLADFRKVGDALKEKYDSAAAMRLNSRGKLVQVNSRFNSPTTQDLVYIDPSPDYCVRNESTGSLGTQGRLCNKTSEGMDGCELMCCGRGYDQFKTVQTERCHCKFHWCCYVKCKKCTEIVDQFVCK
[1]
  methylation of the ERα CpG island: demethylated
[2]
  PR mRNA: detected
[3]
  growth inhibition (MTT) after tamoxifen: statistically significant growth inhibition
  effect on breast cancer cell proliferation alone (MTT): Neither rWnt-5a nor Foxy-5 had an effect
[4]
  Estradiol induced expression of CATD: consistently lost
  Estradiol induced expression of EBAG9: consistently lost
